# Measured values from ChEMBL document CHEMBL1201862, “PubChem BioAssay data set” (2004).
# Calls of active or inactive are those of the source.
# Key:
# Jurkat = assay: SAR Analysis of small molecule inhibitors of […] specific antigen receptor-induced NF-kB activation in a Jurkat cell line using a luminescence assay - Set 3. [Related pubchem assays (depositor defined):AID435022, AID435025, AID465]; assay type: functional, cell-based; details: Homo sapiens
# HEK293 [1] = assay: SAR Analysis of small molecule inhibitors of B-cell specific antigen receptor-induced NF-kB activation in a HEK-293T cell line using a luminescence assay - Set 2. [Related pubchem assays (depositor defined):AID435022, AID435025, AID489021]; assay type: functional, cell-based; details: Homo sapiens
# HEK293 [2] = assay: HEK293T cell viability loss, resazurin readout – resazurin fluorescence, cytotoxicity control for NF-kB activator project, SAR follow-up (AID 493251); assay type: functional, cell-based; details: Homo sapiens
# [3] = target: Cell division cycle 7-related protein kinase (Homo sapiens, UniProt O00311); assay type: functional;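 also: value obtained from a kinome-wide kinase panel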
# Wee1-like protein kinase = Wee1-like protein kinase (Homo sapiens, UniProt P30291); assay: Navigating the Kinome. Panel member name: WEE1; assay type: functional
# [4] = target: Tyrosine-protein kinase Lck (Homo sapiens, UniProt P06239); assay type: functional;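 also: lck was assayed as one member of a kinase panel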
# [5] = target: Tyrosine-protein kinase BTK (Homo sapiens, UniProt Q06187); assay type: functional
# [6] = target: Serine/threonine-protein kinase TAO1 (Homo sapiens, UniProt Q7L7X3); assay type: functional
# [7] = target: Vascular endothelial growth factor receptor 2 (Homo sapiens, UniProt P35968); assay type: functional
# [8] = target: Insulin-like growth factor 1 receptor (Homo sapiens, UniProt P08069); assay: Navigating the Kinome. Panel member name: IGF1R; assay type: functional
# Misshapen-like kinase 1 = Misshapen-like kinase 1 (Homo sapiens, UniProt Q8N4C8); assay type: functional;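 also: kinome panel screen with MINK as the panel member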
# Focal adhesion kinase 1 = Focal adhesion kinase 1 (Homo sapiens, UniProt Q05397); assay type: functional;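 also: measured as one member of a kinome panel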
# [9] = target: Tyrosine-protein kinase Fyn (Homo sapiens, UniProt P06241); assay type: functional
# [10] = target: Mitogen-activated protein kinase kinase kinase kinase 4 (Homo sapiens, UniProt O95819); assay type: functional
# [11] = target: Macrophage colony-stimulating factor 1 receptor (Homo sapiens, UniProt P07333); assay type: functional;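 also: value comes from the Navigating the Kinome screening panel, CSF1R member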
# [12] = target: T1, Apoptotic protease-activating factor 1 (Homo sapiens, UniProt O14727); assay: SAR analysis of small molecule inhibitors of Apaf-1 in a Fluorescent assay.; assay type: functional; details: read-out: IC50_Mean
# T1 sequence (O14727 whole entry): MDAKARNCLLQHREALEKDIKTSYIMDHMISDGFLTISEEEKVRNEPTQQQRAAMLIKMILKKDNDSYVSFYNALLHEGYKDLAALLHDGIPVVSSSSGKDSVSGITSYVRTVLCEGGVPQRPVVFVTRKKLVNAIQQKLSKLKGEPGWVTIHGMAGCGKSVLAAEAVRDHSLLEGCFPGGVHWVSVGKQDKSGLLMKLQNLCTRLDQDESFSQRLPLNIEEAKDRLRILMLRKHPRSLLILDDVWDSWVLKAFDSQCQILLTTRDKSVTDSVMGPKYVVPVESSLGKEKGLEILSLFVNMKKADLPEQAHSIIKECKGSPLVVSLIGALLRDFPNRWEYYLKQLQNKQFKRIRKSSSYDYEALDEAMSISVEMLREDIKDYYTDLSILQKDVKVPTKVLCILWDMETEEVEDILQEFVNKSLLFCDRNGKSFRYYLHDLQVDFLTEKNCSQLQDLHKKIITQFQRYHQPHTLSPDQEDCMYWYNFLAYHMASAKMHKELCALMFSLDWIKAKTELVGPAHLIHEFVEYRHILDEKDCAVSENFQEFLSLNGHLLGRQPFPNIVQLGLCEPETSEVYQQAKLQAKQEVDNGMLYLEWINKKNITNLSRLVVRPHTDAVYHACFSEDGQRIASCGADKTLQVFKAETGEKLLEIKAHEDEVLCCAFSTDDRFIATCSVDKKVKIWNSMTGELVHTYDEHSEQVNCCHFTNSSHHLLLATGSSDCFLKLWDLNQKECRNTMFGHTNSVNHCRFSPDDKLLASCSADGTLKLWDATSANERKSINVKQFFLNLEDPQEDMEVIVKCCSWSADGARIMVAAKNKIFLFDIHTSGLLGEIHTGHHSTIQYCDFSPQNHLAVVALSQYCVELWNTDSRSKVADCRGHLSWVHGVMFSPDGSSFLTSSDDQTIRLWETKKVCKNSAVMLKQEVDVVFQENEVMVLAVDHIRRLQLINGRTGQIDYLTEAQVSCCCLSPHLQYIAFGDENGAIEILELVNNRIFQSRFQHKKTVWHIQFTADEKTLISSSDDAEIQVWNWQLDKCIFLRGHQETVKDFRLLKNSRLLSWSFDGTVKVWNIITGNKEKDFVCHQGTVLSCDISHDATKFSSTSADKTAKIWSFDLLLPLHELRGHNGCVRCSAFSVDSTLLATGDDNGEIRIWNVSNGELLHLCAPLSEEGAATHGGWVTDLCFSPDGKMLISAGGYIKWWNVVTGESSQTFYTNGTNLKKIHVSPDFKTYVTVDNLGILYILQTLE
# [13] = test system: Streptococcus sp. 'group A'; assay: Streptococcus pyogenes SK(-)GAS viability under kanamycin – luminescence, BacTiterGlo, confirmation, counter-screen for streptokinase expression inhibitor project, dose response (AID 1900); assay type: functional, organism-based
# BJ [14] = assay: BJ-TERT fibroblast viability loss – cell-based, RAS-independent, luminescence, dose response (AID 1933); assay type: functional; details: Homo sapiens
# cells [15] = assay type: functional, cell-based
# Streptokinase A = target: T2, Streptokinase A (Streptococcus pyogenes serotype M1, UniProt P10520); assay: viability-normalized secreted streptokinase activity reduction – plasminogen activation absorbance, OD405, dose response (AID 1914); assay type: functional, Streptococcus pyogenes M1 GAS;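 also: secreted streptokinase activity via plasminogen activation per viability signal from cell pellet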
# T2 sequence (P10520 whole entry): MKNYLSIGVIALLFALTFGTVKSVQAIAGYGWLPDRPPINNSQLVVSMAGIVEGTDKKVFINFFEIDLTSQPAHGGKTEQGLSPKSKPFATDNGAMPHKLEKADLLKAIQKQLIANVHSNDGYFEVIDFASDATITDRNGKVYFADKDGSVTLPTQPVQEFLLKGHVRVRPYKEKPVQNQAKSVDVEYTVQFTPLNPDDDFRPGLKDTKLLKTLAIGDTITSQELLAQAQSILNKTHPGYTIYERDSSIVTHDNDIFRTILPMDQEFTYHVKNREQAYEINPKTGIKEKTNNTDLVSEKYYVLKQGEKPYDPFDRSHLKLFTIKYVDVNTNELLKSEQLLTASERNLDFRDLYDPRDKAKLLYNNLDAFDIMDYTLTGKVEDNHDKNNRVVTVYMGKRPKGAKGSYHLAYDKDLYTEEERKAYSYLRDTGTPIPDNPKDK
# BJ [16] = assay: cells; assay type: functional, cell-based; details: Homo sapiens
# cells [17] = assay type: functional, cell-based; remark: listed apart in the source
# BJ [18] = assay: BJ-TERT-LT-ST fibroblast viability loss – cell-based, RAS-independent, luminescence, dose response (AID 1935); assay type: functional; details: Homo sapiens;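 also: BJ fibroblasts immortalized with TERT plus LT and ST oncogenes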
# [19] = DRD fibroblast viability loss – cell-based, non-viral oncogenic, luminescence, dose response (AID 1934); assay type: functional; details: Homo sapiens
# Streptococcus = assay: GAS UMAA2166 growth inhibition – luminescence, BacTiterGlo, counter-screen for streptokinase expression inhibitor project, dose response (AID 1915); assay type: functional, organism-based;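 also: potency for reduction of bacterial viability or growth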
# BJ [20] = assay: growth inhibition of engineered Ras-driven BJ cells – cell-based, alamar blue fluorescence, cherrypicked samples, dose response (AID 2631); assay type: functional; details: Homo sapiens;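 also: confirmatory dose-response assay in RAS-dependent BJ fibroblasts engineered with TERT, LT and ST, with cytotoxicity read by fluorescence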
# INS1 = assay: INS-1E survival protection against cytokine death – cell-based, luminescence, retest, dose response (AID 449756); assay type: functional; details: Rattus norvegicus;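 also: cell death triggered by IL-1 beta plus TNF-alpha plus IFN-gamma mixture; protective hits raise ATP signal compared with cytokine alone wells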
# [21] = SAR analysis of small molecule inhibitors of Apaf-1 using a LZ-Caspase-9/Caspase-3 Fluorescent Selectivity assay - Set 2.; assay type: functional; details: read-out: IC50_Mean
# [22] = target: T1, Apoptotic protease-activating factor 1; assay: SAR analysis of small molecule Inhibitors of Apaf-1 in a Fluorescent assay - set 2.; assay type: functional; details: read-out: IC50_Mean
# Cytochrome P450 3A4 = Cytochrome P450 3A4 (Homo sapiens, UniProt P08684);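 also: CYP3A4 tested as one member of a cytochrome P450 panel screen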
# Chain of Serine/threonine-protein kinase TAO1 (Q7L7X3 whole entry): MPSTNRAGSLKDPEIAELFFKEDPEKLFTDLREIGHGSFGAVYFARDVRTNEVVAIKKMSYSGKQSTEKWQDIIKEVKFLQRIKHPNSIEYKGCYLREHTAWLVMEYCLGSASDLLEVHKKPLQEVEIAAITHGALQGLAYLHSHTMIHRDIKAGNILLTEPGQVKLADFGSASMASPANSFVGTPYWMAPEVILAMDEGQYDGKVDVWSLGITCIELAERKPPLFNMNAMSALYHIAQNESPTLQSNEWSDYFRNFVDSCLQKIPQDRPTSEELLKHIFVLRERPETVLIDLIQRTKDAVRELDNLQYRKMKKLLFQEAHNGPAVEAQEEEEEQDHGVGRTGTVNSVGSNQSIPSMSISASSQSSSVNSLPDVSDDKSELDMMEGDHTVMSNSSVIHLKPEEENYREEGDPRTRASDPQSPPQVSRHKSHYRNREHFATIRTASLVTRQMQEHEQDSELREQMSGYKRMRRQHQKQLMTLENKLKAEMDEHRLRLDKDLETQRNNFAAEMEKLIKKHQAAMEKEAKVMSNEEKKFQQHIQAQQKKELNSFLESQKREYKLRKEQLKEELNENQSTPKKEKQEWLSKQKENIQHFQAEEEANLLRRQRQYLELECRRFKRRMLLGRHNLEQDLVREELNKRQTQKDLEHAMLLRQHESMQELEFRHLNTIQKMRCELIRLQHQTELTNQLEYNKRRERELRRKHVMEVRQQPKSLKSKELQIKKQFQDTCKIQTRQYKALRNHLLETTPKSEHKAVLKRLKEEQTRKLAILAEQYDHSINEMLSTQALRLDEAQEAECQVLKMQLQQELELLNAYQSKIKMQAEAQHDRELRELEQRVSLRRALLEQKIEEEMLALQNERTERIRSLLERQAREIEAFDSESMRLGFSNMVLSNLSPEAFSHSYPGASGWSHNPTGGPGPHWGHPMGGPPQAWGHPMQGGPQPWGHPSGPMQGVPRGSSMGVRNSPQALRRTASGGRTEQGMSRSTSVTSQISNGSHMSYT
# Chain of Cell division cycle 7-related protein kinase (O00311 whole entry): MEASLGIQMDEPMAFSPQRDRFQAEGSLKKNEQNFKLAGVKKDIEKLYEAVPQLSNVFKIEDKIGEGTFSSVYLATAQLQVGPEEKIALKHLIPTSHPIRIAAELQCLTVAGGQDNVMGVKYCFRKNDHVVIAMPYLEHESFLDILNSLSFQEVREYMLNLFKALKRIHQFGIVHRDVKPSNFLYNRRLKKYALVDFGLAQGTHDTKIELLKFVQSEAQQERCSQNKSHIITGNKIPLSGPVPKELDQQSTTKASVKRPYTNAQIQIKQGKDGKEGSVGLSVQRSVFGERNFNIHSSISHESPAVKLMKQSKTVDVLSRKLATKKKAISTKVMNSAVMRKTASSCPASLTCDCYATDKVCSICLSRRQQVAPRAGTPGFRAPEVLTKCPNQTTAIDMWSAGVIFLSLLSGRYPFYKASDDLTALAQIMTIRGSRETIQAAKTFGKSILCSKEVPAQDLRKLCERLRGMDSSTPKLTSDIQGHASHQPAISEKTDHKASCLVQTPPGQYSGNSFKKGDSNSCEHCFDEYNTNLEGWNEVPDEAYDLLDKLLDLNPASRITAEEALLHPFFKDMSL
# Chain of Tyrosine-protein kinase Fyn (P06241 whole entry): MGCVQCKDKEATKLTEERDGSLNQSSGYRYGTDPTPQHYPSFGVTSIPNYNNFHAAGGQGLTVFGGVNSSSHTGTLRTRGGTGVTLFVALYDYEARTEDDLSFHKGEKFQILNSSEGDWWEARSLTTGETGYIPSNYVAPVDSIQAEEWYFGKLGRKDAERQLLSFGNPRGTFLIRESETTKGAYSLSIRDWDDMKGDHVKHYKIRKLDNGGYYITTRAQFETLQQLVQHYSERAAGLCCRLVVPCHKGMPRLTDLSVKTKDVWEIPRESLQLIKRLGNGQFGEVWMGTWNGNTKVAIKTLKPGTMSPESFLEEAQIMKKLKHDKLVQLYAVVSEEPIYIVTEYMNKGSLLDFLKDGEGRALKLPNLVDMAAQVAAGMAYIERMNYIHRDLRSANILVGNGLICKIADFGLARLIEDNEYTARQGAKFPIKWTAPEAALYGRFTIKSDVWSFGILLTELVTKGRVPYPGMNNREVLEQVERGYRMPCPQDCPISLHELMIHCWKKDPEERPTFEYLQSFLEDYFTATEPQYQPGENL
# Chain of Misshapen-like kinase 1 (Q8N4C8 whole entry): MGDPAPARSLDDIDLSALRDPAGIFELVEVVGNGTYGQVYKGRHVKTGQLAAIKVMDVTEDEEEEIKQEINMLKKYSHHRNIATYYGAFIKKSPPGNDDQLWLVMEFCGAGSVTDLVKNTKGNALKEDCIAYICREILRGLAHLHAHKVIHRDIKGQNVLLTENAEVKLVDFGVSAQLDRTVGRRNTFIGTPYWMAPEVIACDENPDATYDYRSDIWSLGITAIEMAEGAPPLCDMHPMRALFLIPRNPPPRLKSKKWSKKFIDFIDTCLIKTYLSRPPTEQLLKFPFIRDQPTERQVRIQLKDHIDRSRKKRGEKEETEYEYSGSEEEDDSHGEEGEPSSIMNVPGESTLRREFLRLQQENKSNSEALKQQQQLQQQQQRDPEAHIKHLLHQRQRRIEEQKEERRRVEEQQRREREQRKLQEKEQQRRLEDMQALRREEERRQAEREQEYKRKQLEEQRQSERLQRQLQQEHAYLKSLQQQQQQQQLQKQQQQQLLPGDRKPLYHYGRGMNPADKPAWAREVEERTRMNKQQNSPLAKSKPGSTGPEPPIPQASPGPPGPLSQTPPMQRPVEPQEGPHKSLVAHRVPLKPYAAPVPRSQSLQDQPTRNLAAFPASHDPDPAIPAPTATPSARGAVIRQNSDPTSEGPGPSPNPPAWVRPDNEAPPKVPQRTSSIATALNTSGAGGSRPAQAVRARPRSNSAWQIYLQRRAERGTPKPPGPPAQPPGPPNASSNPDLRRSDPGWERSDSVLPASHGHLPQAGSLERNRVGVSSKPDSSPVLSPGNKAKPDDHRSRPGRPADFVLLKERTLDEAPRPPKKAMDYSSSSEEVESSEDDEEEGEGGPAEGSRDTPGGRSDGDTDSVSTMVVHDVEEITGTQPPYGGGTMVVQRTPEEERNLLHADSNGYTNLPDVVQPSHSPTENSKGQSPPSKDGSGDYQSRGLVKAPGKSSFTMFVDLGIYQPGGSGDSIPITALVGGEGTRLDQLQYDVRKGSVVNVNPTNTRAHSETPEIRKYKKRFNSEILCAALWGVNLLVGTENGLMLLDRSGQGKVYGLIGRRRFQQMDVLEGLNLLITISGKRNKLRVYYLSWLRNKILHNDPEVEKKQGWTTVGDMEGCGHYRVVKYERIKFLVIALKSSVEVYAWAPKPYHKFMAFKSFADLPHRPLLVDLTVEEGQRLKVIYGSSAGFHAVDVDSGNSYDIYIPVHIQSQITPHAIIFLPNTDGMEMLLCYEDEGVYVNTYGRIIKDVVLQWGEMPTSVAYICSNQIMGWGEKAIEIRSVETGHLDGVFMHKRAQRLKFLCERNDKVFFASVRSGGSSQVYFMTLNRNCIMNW
# Chain of Mitogen-activated protein kinase kinase kinase kinase 4 (O95819 whole entry): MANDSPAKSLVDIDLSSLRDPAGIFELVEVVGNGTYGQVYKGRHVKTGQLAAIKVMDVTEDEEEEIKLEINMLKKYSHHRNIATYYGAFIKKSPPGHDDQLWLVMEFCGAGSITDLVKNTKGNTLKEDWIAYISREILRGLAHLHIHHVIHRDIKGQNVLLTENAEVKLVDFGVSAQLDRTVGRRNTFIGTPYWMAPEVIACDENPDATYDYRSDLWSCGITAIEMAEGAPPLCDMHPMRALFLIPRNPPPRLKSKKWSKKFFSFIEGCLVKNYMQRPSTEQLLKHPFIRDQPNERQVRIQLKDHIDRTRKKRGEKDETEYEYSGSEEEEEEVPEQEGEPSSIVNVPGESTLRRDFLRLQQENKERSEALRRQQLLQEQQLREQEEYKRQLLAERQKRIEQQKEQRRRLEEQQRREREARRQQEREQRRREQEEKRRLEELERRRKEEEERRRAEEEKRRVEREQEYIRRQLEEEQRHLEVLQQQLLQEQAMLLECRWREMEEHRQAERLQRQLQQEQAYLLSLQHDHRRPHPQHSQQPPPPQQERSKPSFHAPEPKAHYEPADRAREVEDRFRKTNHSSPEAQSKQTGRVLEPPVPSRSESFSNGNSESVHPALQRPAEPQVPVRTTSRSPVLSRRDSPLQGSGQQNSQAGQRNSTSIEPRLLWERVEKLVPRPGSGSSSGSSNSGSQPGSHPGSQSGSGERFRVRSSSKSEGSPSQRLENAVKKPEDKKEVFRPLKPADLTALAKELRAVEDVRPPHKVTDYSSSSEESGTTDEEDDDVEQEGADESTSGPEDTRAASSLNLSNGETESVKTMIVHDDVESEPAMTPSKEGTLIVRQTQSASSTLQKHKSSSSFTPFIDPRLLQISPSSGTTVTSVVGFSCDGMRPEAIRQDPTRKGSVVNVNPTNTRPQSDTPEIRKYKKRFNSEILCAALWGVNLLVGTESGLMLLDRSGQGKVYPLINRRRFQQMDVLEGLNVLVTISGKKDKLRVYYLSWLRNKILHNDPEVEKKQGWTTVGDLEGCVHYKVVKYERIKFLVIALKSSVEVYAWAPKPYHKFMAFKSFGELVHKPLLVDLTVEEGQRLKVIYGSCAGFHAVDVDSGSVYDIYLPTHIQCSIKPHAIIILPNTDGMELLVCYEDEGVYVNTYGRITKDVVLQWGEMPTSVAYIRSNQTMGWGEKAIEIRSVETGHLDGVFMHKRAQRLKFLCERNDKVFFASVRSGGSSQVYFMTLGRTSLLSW
structure (smiles),measurement,setting,value
CCOc1ccc(-c2nc(CSCC(=O)N3CCCC3)c(C)o2)cc1,IC50,Jurkat,> 80 µM (inactive)
same,IC50,HEK293 [1],46.6 µM (inactive)
same,IC50,HEK293 [2],> 80 µM (inactive)
N#Cc1cccc(Nc2ncnc(Nc3ccc(F)cc3)n2)c1,Ki,[3],0.1 µM (active)
same,Ki,Wee1-like protein kinase,> 3.16 µM (inactive)
O=C(Cc1ccccc1)Nc1cccc(-c2nc3sccn3c2-c2ccnc(Nc3ccccc3Cl)n2)c1,Ki,[4],> 6.31 µM (inactive)
same,Ki,[5],> 6.31 µM (inactive)
same,Ki,[6],> 6.31 µM (inactive)
same,Ki,[7],0.501 µM (active)
same,Ki,[8],1.26 µM (active)
same,Ki,Misshapen-like kinase 1,> 5.01 µM (inactive)
same,Ki,Focal adhesion kinase 1,3.16 µM (active)
same,Ki,[9],> 6.31 µM (inactive)
same,Ki,[10],> 5.01 µM (inactive)
same,Ki,[11],0.631 µM (active)
Cc1nc2cc(-c3nc4cc(NC(=O)c5cccs5)ccc4[nH]3)ccc2[nH]1,IC50,[12],41.2 µM (active)
CCCc1sc(N/N=C/c2ccccn2)nc1-c1ccc(F)cc1,EC50,[13],7.2 µM (active)
same,EC50,BJ [14],6.54 µM (active)
same,EC50,cells [15],74.4 µM (active)
same,EC50,Streptokinase A,> 150 µM (not active)
same,EC50,BJ [16],10.7 µM (active)
same,EC50,cells [17],38.1 µM (active)
same,EC50,BJ [18],7.71 µM (active)
same,EC50,[19],19.9 µM (active)
same,EC50,Streptococcus,10.8 µM (active)
same,EC50,BJ [20],19.4 µM (active)
same,AC50,INS1,0.904 µM (active)
O=C1C(=O)N(Cc2ccc(Cl)c(Cl)c2)c2ccccc21,IC50,[21],22.7 µM (active)
same,IC50,[22],34 µM (active)
same,AC50,Cytochrome P450 3A4,7.94 µM (inconclusive)
